± gives the expanded uncertainty stated by the source.
Assay: xn = mol fraction of the nth substance listed
Conditions: Liquid

CCCCO [butan-1-ol] + O=C=O
Conditions	mass density [kg/m3]
352.82 K, 13001 kPa, x2 = 0.1842	780.49 ± 0.58
352.82 K, 14050 kPa, x2 = 0.1842	781.67 ± 0.59
352.82 K, 15000 kPa, x2 = 0.1842	782.72 ± 0.6
352.82 K, 15999 kPa, x2 = 0.1842	783.84 ± 0.61
352.82 K, 17008 kPa, x2 = 0.1842	784.88 ± 0.62
352.82 K, 18066 kPa, x2 = 0.1842	786.01 ± 0.63
352.82 K, 19002 kPa, x2 = 0.1842	787.01 ± 0.64
352.82 K, 20015 kPa, x2 = 0.1842	788.03 ± 0.65
352.82 K, 21043 kPa, x2 = 0.1842	789.11 ± 0.66
352.82 K, 22025 kPa, x2 = 0.1842	790.1 ± 0.67
352.82 K, 23024 kPa, x2 = 0.1842	791.11 ± 0.68
352.82 K, 24015 kPa, x2 = 0.1842	792.1 ± 0.69
352.82 K, 25100 kPa, x2 = 0.1842	793.18 ± 0.7
352.83 K, 2007 kPa, x2 = 0.0857	766.96 ± 0.48
352.83 K, 3023 kPa, x2 = 0.0857	768.13 ± 0.49
352.83 K, 3953 kPa, x2 = 0.0857	769.18 ± 0.5
352.83 K, 5008 kPa, x2 = 0.0857	770.34 ± 0.51
352.83 K, 5991 kPa, x2 = 0.0857	771.43 ± 0.51
352.83 K, 7011 kPa, x2 = 0.0857	772.54 ± 0.52
352.83 K, 7992 kPa, x2 = 0.0857	773.57 ± 0.53
352.83 K, 9016 kPa, x2 = 0.0857	774.63 ± 0.54
352.83 K, 10033 kPa, x2 = 0.0857	775.71 ± 0.55
352.83 K, 10983 kPa, x2 = 0.0857	776.62 ± 0.56
352.83 K, 12020 kPa, x2 = 0.0857	777.74 ± 0.57
352.83 K, 13038 kPa, x2 = 0.0857	778.75 ± 0.58
352.83 K, 13990 kPa, x2 = 0.0857	779.64 ± 0.59
352.83 K, 14986 kPa, x2 = 0.0857	780.63 ± 0.6
352.83 K, 16028 kPa, x2 = 0.0857	781.61 ± 0.61
352.83 K, 16995 kPa, x2 = 0.0857	782.54 ± 0.62
352.83 K, 17994 kPa, x2 = 0.0857	783.45 ± 0.63
352.83 K, 18991 kPa, x2 = 0.0857	784.4 ± 0.64
352.83 K, 20014 kPa, x2 = 0.0857	785.33 ± 0.66
352.83 K, 21017 kPa, x2 = 0.0857	786.18 ± 0.67
352.83 K, 21993 kPa, x2 = 0.0857	787.09 ± 0.68
352.83 K, 23041 kPa, x2 = 0.0857	788.01 ± 0.69
352.83 K, 24037 kPa, x2 = 0.0857	788.92 ± 0.7
352.83 K, 25058 kPa, x2 = 0.0857	789.81 ± 0.71
352.85 K, 13091 kPa, x2 = 0.4972	783.81 ± 0.58
352.85 K, 13958 kPa, x2 = 0.4972	785.52 ± 0.59
352.85 K, 15066 kPa, x2 = 0.4972	787.67 ± 0.6
352.85 K, 16029 kPa, x2 = 0.4972	789.49 ± 0.61
352.85 K, 17077 kPa, x2 = 0.4972	791.44 ± 0.61
352.85 K, 18031 kPa, x2 = 0.4972	793.15 ± 0.62
352.85 K, 19033 kPa, x2 = 0.4972	794.93 ± 0.63
352.85 K, 20018 kPa, x2 = 0.4972	796.63 ± 0.64
352.85 K, 21055 kPa, x2 = 0.4972	798.4 ± 0.65
352.85 K, 22035 kPa, x2 = 0.4972	800 ± 0.65
352.85 K, 23067 kPa, x2 = 0.4972	801.7 ± 0.66
352.85 K, 24007 kPa, x2 = 0.4972	803.18 ± 0.67
352.85 K, 25035 kPa, x2 = 0.4972	804.81 ± 0.68
352.88 K, 14075 kPa, x2 = 0.5965	780.49 ± 0.6
352.88 K, 15042 kPa, x2 = 0.5965	783.18 ± 0.61
352.88 K, 16039 kPa, x2 = 0.5965	785.88 ± 0.61
352.88 K, 17076 kPa, x2 = 0.5965	788.55 ± 0.65
352.88 K, 18030 kPa, x2 = 0.5965	790.96 ± 0.63
352.88 K, 18449 kPa, x2 = 0.8663	712.26 ± 1.5
352.88 K, 19037 kPa, x2 = 0.5965	793.41 ± 0.64
352.88 K, 19044 kPa, x2 = 0.8663	719.05 ± 0.88
352.88 K, 20049 kPa, x2 = 0.5965	795.8 ± 0.65
352.88 K, 20064 kPa, x2 = 0.8663	729.73 ± 0.84
352.88 K, 21030 kPa, x2 = 0.5965	798.05 ± 0.65
352.88 K, 21052 kPa, x2 = 0.8663	739.04 ± 0.82
352.88 K, 22036 kPa, x2 = 0.5965	800.27 ± 0.66
352.88 K, 22047 kPa, x2 = 0.8663	747.62 ± 0.79
352.88 K, 23019 kPa, x2 = 0.5965	802.43 ± 0.66
352.88 K, 23067 kPa, x2 = 0.8663	755.76 ± 0.78
352.88 K, 24035 kPa, x2 = 0.8663	762.91 ± 0.78
352.88 K, 24039 kPa, x2 = 0.5965	804.6 ± 0.67
352.88 K, 25048 kPa, x2 = 0.8663	769.99 ± 0.77
352.88 K, 25092 kPa, x2 = 0.5965	806.79 ± 0.68
362.66 K, 20602 kPa, x2 = 0.9698	595.03 ± 1.1
362.66 K, 21041 kPa, x2 = 0.9698	604.05 ± 1.1
362.66 K, 22017 kPa, x2 = 0.9698	622.53 ± 1.1
362.66 K, 23022 kPa, x2 = 0.9698	639.79 ± 1.1
362.66 K, 24038 kPa, x2 = 0.9698	655.56 ± 1
362.66 K, 25046 kPa, x2 = 0.9698	669.85 ± 1
362.67 K, 1053 kPa, x2 = 0.0251	755.01 ± 0.48
362.67 K, 2066 kPa, x2 = 0.0251	756.19 ± 0.49
362.67 K, 3045 kPa, x2 = 0.0251	757.27 ± 0.49
362.67 K, 4013 kPa, x2 = 0.0251	758.36 ± 0.5
362.67 K, 5068 kPa, x2 = 0.0251	759.49 ± 0.51
362.67 K, 6009 kPa, x2 = 0.0251	760.49 ± 0.52
362.67 K, 6988 kPa, x2 = 0.0251	761.58 ± 0.53

— the NIST ThermoML archive (doi:10.1021/je700261b)
